Results as given in patent US8008354B2, “Death receptor sensitizing compounds and methods of use therefor” (Burnham Institute for Medical Research, priority 2006, dated 2011).
Where a name gives a salt, the structure may show the parent alone.

What was measured:
Type in all cases: cell-based, human
FAS or TRAIL receptors = experiment: Surface expression of FAS or TRAIL receptors by flow cytometry; conditions: PPC-1 cells, flow cytometry (data not shown)
Excerpt: Furthermore, since these compounds sensitize to both FAS and TRAIL, they presumably act distal to death receptors.

FLIP mRNA = FLIP mRNA by quantitative RT-PCR; conditions: for expression of FLIP mRNA: Example 1, responding and non-responding cell lines, 24 hours, long isoform normalized for GAPDH
Description: FIG. 7. Effect of FAS-sensitizing compounds on levels of FLIP protein and DISC activation. (A) PPC-1 cells (2×10^5) were seeded into 35 mm plates and treated the next day with various FAS-sensitizing compounds (30 μM), with (+) or without (−) CH-11 antibody (100 ng/mL). As a positive control, cells were treated with CDDO (5 μM). Cell lysates were prepared 24 hours later, normalized for total protein content, and analyzed by SDS-PAGE/immunoblotting using antibodies specific for FLIP or a-tubulin. (B) PPC-1, OVCAR-3, T47D, MDA-MB-468 and DU 145 cells (2×10^5) were seeded into 35 mm plates and treated the next day with 5809354 (40 μM). Cell lysates were prepared 24 hours after treatment, normalized for total protein and analyzed by SDS-PAGE/immunoblotting using antibodies specific for FLIP or β-actin. (C) PPC-1, OVCAR-3, T47D, and DU 145 cells (2×10^5) were seeded into 35 mm plates and treated the next day with 5809354 (40 μM) (black bars) or buffer control (white bars). mRNA was extracted 24 hours after treatment. Levels of the long isoform of FLIP and GAPDH were detected by quantitative RT-PCR. Levels of FLIP were normalized for GAPDH expression and expressed as a mean fold change+SD over buffer treated cells. (D) PPC-1 cells (2×10^5) were seeded into 35 mm plates and treated the next day with various FAS-sensitizing compounds (30 μM) with (+) or without (−) CH-11 (100 ng/mL). Cell lysates were prepared 24 hours after treatment, normalized for total protein, and analyzed by SDS-PAGE/immunoblotting using antibodies specific for caspase-8 and β-actin.
FIG. 13. Small molecule down-regulation of FLIP sensitizes prostate cancer cells to anoikis. (A) PPC-1 cells were seeded overnight in adherent conditions and then treated with increasing concentrations of 5809354 for 16 hours. After incubation, cells were harvested. Total cellular RNA was extracted and mRNA levels of the long isoform of FLIP (FLIPL), the short isoform of FLIP (FLIPS), or rRNA levels of 18S were detected by real-time RT-PCR. Data were normalized using the ΔΔCT method and expressed as the mean±SEM percent of […] expression relative to untreated controls. (B) PPC-1 cells were cultured and treated as in panel A. Total cellular protein was isolated and analyzed by SDS-PAGE immunoblotting using anti-FLIP and anti-Actin antibodies. […] Thirty hours after incubation, cell viability was determined using the MTS assay. […] After incubation, apoptosis was measured by flow cytometry to detect cell surface annexin V expression and PI. […] (E) Cells were harvested, fixed, stained with DAPI, and nuclear morphology analyzed by fluorescence microscopy. […] One week later, cells were stained with methylene blue and the number of colonies counted. […]
Quantitative RT-PCR. […]

PPC-1 cells = experiment: Anoikis of PPC-1 cells in suspension versus adherent conditions (annexin V/PI, DAPI, colony formation)
Description: FIG. 12. Depletion of endogenous FLIP levels by siRNA sensitizes malignant cells to anoikis. (A) PPC-1 cells were seeded in adherent conditions overnight and then transfected with 25 nM anti-FLIP siRNA (siFLIP) or control luciferase siRNA (siCtrl). Thirty hours after transfection, cells were harvested, total protein isolated and analyzed by SDS-PAGE immunoblotting using anti-FLIP and anti-actin antibodies. (B) PPC-1 cells were transfected with increasing concentrations of siFLIP or siCtrl. After transfection, cells were treated with CH-11 Fas activating antibody (100 ng/ml). Thirty hours after incubation, cells were harvested and apoptosis measured by flow cytometry to detect cell surface annexin V expression and PI uptake. Data represents the mean±SEM percent of viable cells. (C) PPC-1 cells were transfected with increasing concentrations of siFLIP or siCtrl. After transfection, cells were subcultured under suspension conditions for 30 hours and then harvested. Apoptosis was measured by flow cytometry to detect cell surface annexin V expression and PI uptake. Data represents the mean±SEM of percent of viable cells. (D) Equal volumes of PPC-1 cells from panel C were replated under adherent conditions to permit clonogenic growth. One week after replating, cells were stained with methylene blue and the number of colonies counted. Data represents the mean±SEM percent of colonies compared to untreated controls.
FIG. 13. Small molecule down-regulation of FLIP sensitizes prostate cancer cells to anoikis. (A) PPC-1 cells were seeded overnight in adherent conditions and then treated with increasing concentrations of 5809354 for 16 hours. After incubation, cells were harvested. Total cellular RNA was extracted and mRNA levels of the long isoform of FLIP (FLIPL), the short isoform of FLIP (FLIPS), or rRNA levels of 18S were detected by real-time RT-PCR. Data were normalized using the ΔΔCT method and expressed as the mean±SEM percent of […] expression relative to untreated controls. (B) PPC-1 cells were cultured and treated as in panel A. Total cellular protein was isolated and analyzed by SDS-PAGE immunoblotting using anti-FLIP and anti-Actin antibodies. (C) PPC-1 cells were seeded overnight in adherent conditions and then exposed to increasing concentrations of 5809354 in the presence or absence of Fas-activating antibody (CH-11, 100 ng/mL). Thirty hours after incubation, cell viability was determined using the MTS assay. Data represents the mean±SEM of percent of viable cells. (D) PPC-1 cells were seeded overnight in adherent or suspension conditions and then treated with increasing concentrations of 5809354 for 30 hours. After incubation, apoptosis was measured by flow cytometry to detect cell surface annexin V expression and PI. Data represents the mean±SEM of percent of viable cells. (E) Cells were harvested, fixed, stained with DAPI, and nuclear morphology analyzed by fluorescence microscopy. Arrowheads refer to fragmented nuclei indicative of apoptosis. […] Thirty hours after incubation, cells were harvested and equal volumes plated in a colony formation assay. One week later, cells were stained with methylene blue and the number of colonies counted. Data represents the mean ±SEM percent of colonies relative to untreated controls.
FIG. 15. 5809354 sensitizes cells to anoikis through a caspase 8 dependent mechanism. (A) PPC-1 cells (5×10^4) were cultured under suspension conditions overnight and then treated with 5809354 in the presence or absence of the pan-caspase inhibitor z-VAD-fink (100 μM). Thirty hours after incubation, anoikis was determined by flow cytometry to detect cell surface annexin V expression and PI uptake. Data represents the mean±SEM percent of viable cells or colonies compared to untreated controls. (B) PPC-1 cells (5×10^4) were cultured in suspension conditions overnight and then treated with 5809354 (60 μM). […]

Row | Molecule | surface expression of FAS or TRAIL receptors (FAS or TRAIL receptors) | expression of FLIP mRNA (FLIP mRNA) | apoptosis in suspension versus adherent cells (PPC-1 cells; thirty hours) | FLIP mRNA expression (FLIP mRNA; Example 2, PPC-1 cells, increasing concentrations, 16 hours) | sensitization to anoikis (PPC-1 cells; suspension conditions, 30 hours) | effect of z-VAD-fmk on anoikis (PPC-1 cells; suspension conditions, z-VAD-fmk 100 μM) | apoptosis under adherent conditions (PPC-1 cells; up to five days after treatment)
1 | CCn1c(=N)n(CC(=O)c2cc(C(C)(C)C)c(O)c(C(C)(C)C)c2)c2ccccc21 [compound 5569100, 1-(3,5-di-tert-butyl-4-hydroxyphenyl)-2-(3-ethyl-2-imino-2,3-dihydro-1H-benzo[d]imidazol-1-yl)ethanone hydrobromide] | did not change | did not reduce FLIP mRNA | – | – | – | – | –
2 | CN[C@@H]1C[C@H]2O[C@@](C)([C@@H]1OC)n1c3ccccc3c3c4c(c5c6ccccc6n2c5c31)C(=O)NC4 [staurosporine, reference compound] | – | – | did not discriminate between suspension and adherent cells | – | – | – | –
3 | CC(=O)CC(=O)Nc1ccc(Cl)c(C(F)(F)F)c1 [compound 6094911, N-[4-chloro-3-(trifluoromethyl)phenyl]-3-oxobutanamide] | did not change | did not reduce FLIP mRNA | – | – | – | – | –
4 | 4-(4-chloro-2-methylphenoxy)-N-hydroxybutanamide [compound 5809354] | did not change | reduced expression of FLIP mRNA | – | concentration-dependent decrease | sensitized cells to anoikis | z-VAD-fmk inhibited the ability of 5809354 to promote anoikis | did not induce apoptosis
